Reference: patent US20040235900A1, “Antimicrobial oxazolifinones with improved pharmacokinetic profile and safety advantages” (priority 2002, published 2004)
Converted amounts (≈) assume the structure as drawn.

Legend:
[1] = test system: reticulocytes; test: Myelosuppressive potential: reticulocyte counts, 14-day oral dosing; type: in vivo, Wistar rats
Procedure: A group of 6 Wistar rats (3 male and 3 female) was exposed to a representative compound of the invention viz. compound No. 4 of the invention, by oral route at a single dose of 50 mg/kg per day for 14 consecutive days. Compound No.30 of U.S. Pat. No. 5,668,286 was also subjected to the same protocol. Linezolid (LNZ) was used as a comparator drug and was administered to rats (by oral route at a dose of 2×25 mg/kg per day for 14 consecutive days. Vehicle treated controls were maintained using identical experimental conditions. The treated as well as control rats were sacrificed 24 hr after the last dose.
A second parameter measured was the change in reticulocyte count, for which the following method was used.
Blood was collected on day 15 (24 hours after the last dose administration) from all the treated as well as control rats by retro-orbital sinus puncture using clean glass rat capillary tubes. […]
3 slides/animal were prepared according to NCCLS staining procedure for reticulocyte staining and counting. […] The percentage presence of reticulocyte was determined in 1000 erythrocytes and was expressed in terms of percentage of reticulocytes over erythrocytes. […]
Values in each of the first two columns above represent ratio of relative weight (calculated organ to body weight ratio) of spleen or thymus in drug treated animals v/s control animals. […]

[2] = Pharmacokinetic study, single I.V. bolus dose in beagle dog; type: in vivo; conditions: iv, single I.V. bolus dose 15 mg/kg (table title), Compound No. 4 and linezolid in 5% Tween, other compounds in cyclodextrin, serum; for concentration at 12 hr: read-out: C-12 hr; for AUC(0-t): read-out: AUC (0-24 hr)
Procedure: Blood samples were collected at time points of 0, 0.08 (not for oral), 0.25, 0.50, 1.0, 1.5, 2.0, 3.0, 4.0, 5.0, 6.0, 8.0, 10.0, 12.0 and 24.0 hours. To facilitate i.v. dosing and collection of blood samples, the dogs were implanted with cannula in cephalic vein. Serum obtained from blood samples was used for HPLC-based analysis.
Serum samples were extracted by solid phase extraction technique using Water's OASIS HLB cartridges. An HPLC-Diode array detection system was used for analysis. Prepared samples were chromatographed on a YMC-AM reversed phase column (150×4.6 mm ID; 5 μm) using an isocratic mobile phase acetate buffer (50 mmol ammonium acetate pH 6.6) acetonitrile, 66:34% v/v (for a representative compound of the invention, 68:32% v/v for compound Nos. 30, 3, 7 and 11 of U.S. Pat. No. 5,668,286, and 75:25% v/v for linezolid) at a flow rate of 1 ml/min, measured at λmax 254 nm. Independently prepared analytical standards and quality control samples were analyzed with each set of unknown samples.
The pharmacokinetics of a representative compound of the invention following single I.V. bolus dose administration of the compound in beagle dog is shown in Table 3.

[3] = test system: Enterococcus faecalis ATCC 29212; test: In-vitro MIC test (agar dilution), E. faecalis; type: cell-based; conditions: ATCC29212, Mueller Hinton agar, 24 hrs at 35° C., read-out: Minimum Inhibitory Concentrations (MIC) E. faecalis
Source text: (§1) The test methods used for verifying the antimicrobial action of compound within the scope of this invention are essentially the same as those described in PCT WO 95/25106, U.S. Pat. No. 5,668,286 and EP 0 750, 618 B1, with the difference that the strains of the organisms used for the MIC determinations in these patents and applications are Staphylococcus aureus ATCC 25923, Staphylococcus epidermidis ATCC 12828, Streptococcus pyogenes ATCC 19615.
(§2) The in-vitro MIC methods of test compounds were determined essentially as described in PCT WO 95/25106, U.S. Pat. No. 5,668,286 and EP 0 750 618 B1.
(§3) Overnight grown cultures of S. aureus organisms in Tryptic Soya broth were diluted in Mueller Hinton Broth to give optical density matching with MacFarland tube 0.5 standard. Cultures were further diluted 1:10 in Mueller Hinton broth. Using Denley's mutipoint inoculator, 10^4 cells were deposited on Mueller Hinton agar (Difco) containing range of 2 fold dilutions of test compounds. These plates were incubated for 24 hrs at 35° C. and MIC results recorded. MIC is defined as minimum drug concentration that inhibits test organisms. For determining MIC of test compounds against Streptococcus pneumoniae, Mueller Hinton agar containing 5% sheep blood was employed.

[4] = test system: Streptococcus pneumoniae ATCC 49619; test: In-vitro MIC test (agar dilution, 5% sheep blood), S. pneumoniae; type: cell-based; conditions: ATCC49619, Mueller Hinton agar containing 5% sheep blood, read-out: Minimum Inhibitory Concentrations (MIC) S. pneumoniae
Source text: as §1, §2, §3

[5] = test system: Methicillin Resistant Staphylococcus aureus MRSA-32; test: In-vitro MIC test (agar dilution), MRSA-32; type: cell-based; conditions: Staphylococcus aureus, MRSA; Mueller Hinton agar, 24 hrs at 35° C.; read-out: Minimum Inhibitory Concentrations (MIC) MRSA-32
Source text: as §1, §2, §3

Row | SMILES | change in ratio of percentage reticulocytes of treated animal versus control animal (in words) ([1]; rat, in vivo, po) | Cmax [2] | concentration at 12 hr [2] | half-life [2] | AUC(0-t) [2] | MIC [3] | MIC [4] | MIC [5] | Ratio of % reticulocytes Retics (treated animal versus control animal) ([1]; Wistar rats, oral, 14 consecutive days, 50 mg/kg per day (LNZ 2×25 mg/kg per day), blood on day 15, ratio less than 0.75 indicates myelosuppressive potential)
1 | CC(=O)NC[C@H]1CN(c2ccc(N3CCC(CC#N)CC3)c(F)c2)C(=O)O1 [Compound 4, (S)-N-{3-[4-(4-cyanomethyl-piperidin-1-yl)-3-fluoro-phenyl]-2-oxo-oxazolidin-5-ylmethyl}-acetamide] | no significant change | 8280 ng/mL | 2640 ng/mL | 12.9 h | 80900 ng·h/mL | 2 µg/mL (≈ 5.34 µM) | 1 µg/mL (≈ 2.67 µM) | 2 µg/mL (≈ 5.34 µM) | –
2 | CC(=O)NC[C@H]1CN(c2ccc(N3CCOCC3)c(F)c2)C(=O)O1 [Linezolid] | – | 7160 ng/mL | 0 ng/mL | 2.41 h | 23300 ng·h/mL | 2 µg/mL (≈ 5.93 µM) | 0.5 µg/mL (≈ 1.48 µM) | 2 µg/mL (≈ 5.93 µM) | 0.43
